Assay results taken from patent US20020137929A1, “1 - (3-heterocyclylphenyl) isothiourea, -isourea, -guanidine and -amidine herbicidal agents” (Intellectual Property Department, BASF Aktiengesellschaft, priority 1998, published 2002).

What was measured:
SETVI (Foxtail, Green) [1] = test: Postemergence herbicidal evaluation; format: in vivo, Setaria viridis; settings: postemergence
Outline: (§1)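 Herbicidal effect was judged by eye on a 0–9 scale covering stand, vigor, deformity, size and chlorosis, compared with controls, four to five weeks after seedlings about two weeks old were sprayed (40 psi, ~0.0156–0.500 kg/ha).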

ZEAMX (Corn, Field) [2] = test: Preemergence herbicidal evaluation; format: in vivo, Zea mays; settings: rated 4-5 weeks after treatment
Outline: (§2)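 Scores (0–9) reflect visual comparison with control plants for stand, vigor, malformation, size and chlorosis. Compound was applied to the soil after sowing, before emergence, as an aqueous acetone spray (about 0.0156–0.500 kg/ha), and cups were kept in a greenhouse for 4–5 weeks.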

SETVI (Foxtail, Green) [3] = test: Preemergence herbicidal evaluation; format: in vivo, Setaria viridis; settings: rated 4-5 weeks after treatment
Outline: as §2

[4] = system: ECHORC (Watergrass (Calif.)); test: Preemergence weed control under flooded paddy conditions; format: in vivo, Echinochloa oryzoides; settings: rated 3-4 weeks after treatment
Outline: (§3)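 Silt loam, seeds in top 0.5 cm; flood held 1.5-3 cm; test cpd as acetone/water 50/50 into flood water, ~0.0313-0.500 kg/ha a.i.; greenhouse 3-4 wk; visual 0-9 score vs control.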

ECHCG (Barnyardgrass) = test: Preemergence herbicidal evaluation; format: in vivo, Echinochloa crus-galli; settings: rated 4-5 weeks after treatment
Outline: as §2

CYPIR (Rice Flatsedge) [5] = test: Postemergence weed control under flooded paddy conditions; format: in vivo, Cyperus iria; settings: postemergence weeds, rated 3 to 4 weeks after treatment
Outline: (§4)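 Containers holding 3–5 cm weeds and rice at 1.5–2.5 leaves are flooded to 1.5–3 cm above soil. Compound in 50/50 v/v aqueous/acetone is then added directly to the water, about 0.0313–0.500 kg/ha. Plants are kept in the greenhouse and rated 0–9 visually at 3–4 weeks.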

[6] = system: SAGPY (Arrowhead (Pygmaea)); test: as above; format: in vivo, Sagittaria pygmaea; settings: postemergence weeds, rated 3 to 4 weeks after treatment
Outline: as §4

[7] = system: ECHORC (Watergrass (Calif.)); test: as above; format: in vivo, Echinochloa oryzoides; settings: postemergence weeds, rated 3 to 4 weeks after treatment
Outline: as §4

[8] = system: TRZAWR (Wheat, Winter, cv Riband); test: Preemergence herbicidal evaluation; format: in vivo, Triticum aestivum; settings: rated 4-5 weeks after treatment
Outline: as §2

CYPSE (Flatsedge) [9] = test: Postemergence weed control under flooded paddy conditions; format: in vivo, Cyperus serotinus; settings: postemergence weeds, rated 3 to 4 weeks after treatment
Outline: as §4

ORYSAT (Rice, Tebonnet) = test: Postemergence herbicidal evaluation; format: in vivo, Oryza sativa, (L.) Tebonnet; settings: postemergence
Outline: as §1

CYPSE (Flatsedge) [10] = test: Preemergence weed control under flooded paddy conditions; format: in vivo, Cyperus serotinus; settings: rated 3-4 weeks after treatment
Outline: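 First, seeds or propagules go into the top 0.5 cm of silt loam; next, water is held 1.5 to 3 cm over the soil; then compound (50/50 acetone/water) is pipetted into it at about 0.0313 to 0.500 kg/ha; finally plants are rated visually 0-9 after three to four weeks.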

CYPIR (Rice Flatsedge) [11] = test: as above; format: in vivo, Cyperus iria; settings: rated 3-4 weeks after treatment
Outline: as §3

ZEAMX (Corn, Field) [12] = test: Postemergence herbicidal evaluation; format: in vivo, Zea mays; settings: postemergence
Outline: as §1

C[C@H](C(=O)O)N1C(=O)CSC1=Nc1cc(-n2c(=O)cc(C(F)(F)F)n(C)c2=O)c(F)cc1Cl [Compound 70, 2-{{2-Chloro-5-[3,6-dihydro-3-methyl-2,6-dioxo-4-(trifluoromethyl)-1(2H)-pyrimidinyl]-4-fluoro-phenyl}imino}-α-methyl-4-oxo-3-thiazolidineacetic acid, D-]
SETVI herbicidal rating (SETVI (Foxtail, Green) [1]; rate 0.0158 kg/ha): 1.0
SETVI herbicidal rating (SETVI (Foxtail, Green) [1]; rate 0.0315 kg/ha): 2.0
SETVI herbicidal rating (SETVI (Foxtail, Green) [1]; rate 0.0630 kg/ha): 9.0
Preemergence herbicidal rating ZEAMX (ZEAMX (Corn, Field) [2]; rate 0.0156 kg/ha): 0.0
Preemergence herbicidal rating ZEAMX (ZEAMX (Corn, Field) [2]; rate 0.0313 kg/ha): 0.0
Preemergence herbicidal rating ZEAMX (ZEAMX (Corn, Field) [2]; rate 0.0625 kg/ha): 0.0
Preemergence herbicidal rating ZEAMX (ZEAMX (Corn, Field) [2]; rate 0.1250 kg/ha): 1.0
Preemergence herbicidal rating ZEAMX (ZEAMX (Corn, Field) [2]; rate 0.2500 kg/ha): 3.0
Preemergence herbicidal rating SETVI (SETVI (Foxtail, Green) [3]; rate 0.0156 kg/ha): 0.0
Preemergence herbicidal rating SETVI (SETVI (Foxtail, Green) [3]; rate 0.0313 kg/ha): 0.0
Preemergence herbicidal rating SETVI (SETVI (Foxtail, Green) [3]; rate 0.0625 kg/ha): 2.0
Preemergence herbicidal rating SETVI (SETVI (Foxtail, Green) [3]; rate 0.1250 kg/ha): 9.0
Preemergence herbicidal rating SETVI (SETVI (Foxtail, Green) [3]; rate 0.2500 kg/ha): 9.0
ECHORC herbicidal effect rating ([4]; 0.0313 kg/ha): 0.0
ECHORC herbicidal effect rating ([4]; 0.0625 kg/ha): 0.0
ECHORC herbicidal effect rating ([4]; 0.1250 kg/ha): 0.0
ECHORC herbicidal effect rating ([4]; 0.2500 kg/ha): 0.0
Preemergence herbicidal rating ECHCG (ECHCG (Barnyardgrass); rate 0.0156 kg/ha): 0.0
Preemergence herbicidal rating ECHCG (ECHCG (Barnyardgrass); rate 0.0313 kg/ha): 0.0
Preemergence herbicidal rating ECHCG (ECHCG (Barnyardgrass); rate 0.0625 kg/ha): 0.0
Preemergence herbicidal rating ECHCG (ECHCG (Barnyardgrass); rate 0.1250 kg/ha): 1.0
Preemergence herbicidal rating ECHCG (ECHCG (Barnyardgrass); rate 0.2500 kg/ha): 1.0
Herbicidal rating CYPIR (CYPIR (Rice Flatsedge) [5]; Rate 0.0313 kg/ha): 0.0
Herbicidal rating CYPIR (CYPIR (Rice Flatsedge) [5]; Rate 0.0625 kg/ha): 2.0
Herbicidal rating CYPIR (CYPIR (Rice Flatsedge) [5]; Rate 0.1250 kg/ha): 2.0
Herbicidal rating CYPIR (CYPIR (Rice Flatsedge) [5]; Rate 0.2500 kg/ha): 2.0
Herbicidal rating SAGPY ([6]; Rate 0.0313 kg/ha): 4.0
Herbicidal rating SAGPY ([6]; Rate 0.0625 kg/ha): 4.0
Herbicidal rating SAGPY ([6]; Rate 0.1250 kg/ha): 4.0
Herbicidal rating SAGPY ([6]; Rate 0.2500 kg/ha): 4.0
Herbicidal rating ECHORC ([7]; Rate 0.0313 kg/ha): 0.0
Herbicidal rating ECHORC ([7]; Rate 0.0625 kg/ha): 0.0
Herbicidal rating ECHORC ([7]; Rate 0.1250 kg/ha): 0.0
Herbicidal rating ECHORC ([7]; Rate 0.2500 kg/ha): 0.0
Preemergence herbicidal rating TRZAWR ([8]; rate 0.0156 kg/ha): 0.0
Preemergence herbicidal rating TRZAWR ([8]; rate 0.0313 kg/ha): 0.0
Preemergence herbicidal rating TRZAWR ([8]; rate 0.0625 kg/ha): 0.0
Preemergence herbicidal rating TRZAWR ([8]; rate 0.1250 kg/ha): 1.0
Preemergence herbicidal rating TRZAWR ([8]; rate 0.2500 kg/ha): 5.0
Herbicidal rating CYPSE (CYPSE (Flatsedge) [9]; Rate 0.0313 kg/ha): 0.0
Herbicidal rating CYPSE (CYPSE (Flatsedge) [9]; Rate 0.0625 kg/ha): 0.0
Herbicidal rating CYPSE (CYPSE (Flatsedge) [9]; Rate 0.1250 kg/ha): 0.0
Herbicidal rating CYPSE (CYPSE (Flatsedge) [9]; Rate 0.2500 kg/ha): 3.0
ORYSAT herbicidal rating (ORYSAT (Rice, Tebonnet); rate 0.0158 kg/ha): 2.5
ORYSAT herbicidal rating (ORYSAT (Rice, Tebonnet); rate 0.0315 kg/ha): 3.5
ORYSAT herbicidal rating (ORYSAT (Rice, Tebonnet); rate 0.0630 kg/ha): 5.0
CYPSE herbicidal effect rating (CYPSE (Flatsedge) [10]; 0.0313 kg/ha): 0.0
CYPSE herbicidal effect rating (CYPSE (Flatsedge) [10]; 0.0625 kg/ha): 0.0
CYPSE herbicidal effect rating (CYPSE (Flatsedge) [10]; 0.1250 kg/ha): 0.0
CYPSE herbicidal effect rating (CYPSE (Flatsedge) [10]; 0.2500 kg/ha): 3.0
CYPIR herbicidal effect rating (CYPIR (Rice Flatsedge) [11]; 0.0313 kg/ha): 0.0
CYPIR herbicidal effect rating (CYPIR (Rice Flatsedge) [11]; 0.0625 kg/ha): 2.0
CYPIR herbicidal effect rating (CYPIR (Rice Flatsedge) [11]; 0.1250 kg/ha): 2.0
CYPIR herbicidal effect rating (CYPIR (Rice Flatsedge) [11]; 0.2500 kg/ha): 2.0
ZEAMX herbicidal rating (ZEAMX (Corn, Field) [12]; rate 0.0158 kg/ha): 4.0
ZEAMX herbicidal rating (ZEAMX (Corn, Field) [12]; rate 0.0315 kg/ha): 5.5
ZEAMX herbicidal rating (ZEAMX (Corn, Field) [12]; rate 0.0630 kg/ha): 7.0
